From patent US20130071848A1 (priority 2011, published 2013) come the findings set out here.

The structures appear in SMILES notation.

The test system of one assay is wild type MEF cells. The assay is described as follows: Viability assay of MEF cells (AlamarBlue). The format is cell-based, mouse. The conditions noted are these: 0-1000 nM 5FdUR, 4 days, AlamarBlue fluorescence normalized to untreated. The procedure: (§1) Wild type and ung^(−/−) MEF cells were seeded onto 96-well plates in DMEM+F12 HAM Mix (Sigma) supplemented with 10% Fetal Bovine Serum (Gibco), 1% Penicillin+Streptomycin (Gibco), 0.5 mM Sodium Pyruvate (Gibco), 1% 100× Non-Essential Amino Acids (Gibco). 2000 cells were seeded in a well containing 100 μl medium. After 4 days 10 μl AlamarBlue (Biosource) was added, incubated for 3 hours at 37° C. and fluorescence was measured by Victor2 140 Multilabel counter at 485 nm excitation and 530 nm emission. Samples in triplicates were treated with different concentration of 5FdUR (0, 1, 10, 20, 50, 100, 250, 500, 1000 nM) and viability was assessed. Measurements were repeated three-times. Fluorescence intensity values measured from the wells was normalized to the intensity detected in samples grown in lack of 5FdUR.
(Resazurin is reduced to fluorescent resorufin, in cell work by metabolically active cells.)

The next assay concerns ung−/− MEF cells. Description: Viability assay of MEF cells (AlamarBlue). Conditions: 0-1000 nM 5FdUR, 4 days, AlamarBlue fluorescence normalized to untreated. The assay is classed as cell-based, mouse. As to the method:
as §1

In assay [1] the test system is BL21(DE3)ung-151 E. coli cells. The assay is described as follows: Uracil content of E. coli genomial DNA by real-time PCR with Pfu WT-pol and Pfu V93Q-pol. Conditions: early log phase (OD600=0.5), mean ± SEM, untreated 537±37. The assay is classed as cell-based, Escherichia coli. As to the method:
Escherichia coli genomial DNA. XL1-blue, BL21(DE3)ung-151 and CJ236 E. coli strains were propagated in LB media at 37° C. and were harvested at the early log phase (OD600=0.5) or at saturated phase (overnight culture). BL21(DE3)ung-151 cells grown in the presence of 30.7 or 61.3 μM 5-fluoro-2′-deoxyuridine (5FdUR) (Sigma-Aldrich) were harvested at the early log phase. Genomial DNA was purified by MasterPure DNA Purification Kit (Epicentre) following the instructions of the manufacturer. The DNA was digested by NdeI restriction enzyme (New England Biolabs) and was separated on 1% agarose gel. […]
(§2) Synthetic and physiological samples purified from agarose gels were applied in series of either 2-fold or 10-fold dilution steps. […] Melting point of the products was measured after a final denaturation at 95° C. for 1 min by heating from 55° C. to 95° C. […] Non-template control was measured in all cases. […] Cq values were determined after the manual setting of threshold level in the early exponential phase of the PCR amplification. […] Efficiency was calculated from the following equation: E=10^(−1/M)−1, where M is the slope of the linear curve and E is the efficiency. […] At each measured CqWt value the shift between the linear curves of the reference and the putatively uracil containing samples was determined. […]
A general note: Real-time PCR tracks product formation cycle by cycle.

Assay [2] concerns ung−/− mouse embryonic fibroblast (MEF) cells. The assay is described as follows: Uracil content of MEF genomial DNA by real-time PCR with Pfu WT-pol and Pfu V93Q-pol. The format is cell-based. Conditions: 100 μM 5FdUR, 4 days, mean ± SEM. The procedure: (§3) Mouse Embryonic Fibroblast (MEF) genomial DNA. Wild type and ung^(−/−) MEF cells (34) were a generous gift from Dr. Hilde Nilsen, University of Oslo. MEF cells were cultured in DMEM+F12 HAM Mix (Sigma) supplemented with 10% Fetal Bovine Serum (Gibco), 1% Penicillin+Streptomycin (Gibco), 0.5 mM Sodium Pyruvate (Gibco), 1% 100× Non-Essential Amino Acids (Gibco). To obtain confluent cells 10^6 cells/T-75 flask were seeded. […] Genomial DNA was purified by MasterPure DNA Purification Kit (Epicentre). DNA was digested by EcoRI restriction enzyme (New England Biolabs) and separated on 1% agarose gel. […]
as §2

Assay [3] has as its system wild-type mouse embryonic fibroblast (MEF) cells. The assay is described as above. The assay is classed as cell-based. Conditions: 100 μM 5FdUR, 4 days, mean ± SEM, practically undetectable. As to the method:
as §3, §2

For `O=c1[nH]c(=O)n([C@H]2C[C@H](O)[C@@H](CO)O2)cc1F` [5FdUR, 5-fluoro-2′-deoxyuridine], the viability entry in the assay on wild type MEF cells and with ung−/− MEF cells was “significant decrease in viability” each time. Moreover, the “uracil content of genomial DNA” value in assay [1] (30.7 μM 5FdUR) worked out at 653±55 deoxyuridine/million dNMP; in assay [1] (61.3 μM 5FdUR), 770±54 deoxyuridine/million dNMP; in assay [2], 341±87 deoxyuridine/million dNMP; in assay [3], 40±38 deoxyuridine/million dNMP.
